# Measurements as given in US11458189B2, “Cytoprotective drugs” (BALMES TRANSPLANTATION, priority 2017, dated 2022).
# Starred links: 1 amine or outer side, 2 acyl side, 3 side chain; linkers in the order of their positions; H or OH if unused. Positions of bridges follow the written chain, without caps; N, C: chain ends. Non-standard residues stand in square brackets, D forms with d. Residues, ends and D or L forms follow the SMILES beside them. *: point of attachment. hTyr(3S-OH,4S-OH,3'-OSO3H) = N[C@H](C(=O)O)[C@H](O)[C@@H](O)c1ccc(O)c(OS(=O)(=O)O)c1; Orn(4R-OH,5R-OH) = O=C([C@H](C[C@@H](O)[C@@H](O)N[*:3])N[*:1])[*:2]; Pro(3S-OH,4S-Me) = C[C@H]1CN[C@H](C(=O)O)[C@H]1O; X1 = CCCCCOc1ccc(-c2cc(-c3ccc(C(=O)*)cc3)no2)cc1; Gln(3R-OH) = NC(=O)C[C@@H](O)[C@H](N)C(=O)O; Hyp = O=C(O)[C@@H]1C[C@@H](O)CN1
# Test system: Human Renal Proximal Tubular Epithelial Cells (HRPTEpiC)
# Experiment: Oxygen and glucose deprivation followed by replenishment, cell survival (calcein AM), HRPTEpiC
# Assay type: cell-based
# Experimental: Anidulafungin and micafungin were tested on Human Renal Glomerular Endothelial Cells (HRGEC, Innoprot P10665), on Human Renal Proximal Tubular Epithelial Cells (HRPTEpiC, Innoprot P10662), on Human Astrocytes (HA, caltag SC-1800), on Human Cardiac Microvascular Endothelial Cells (HCMEC, Caltag SC-6000), on Human Hepatic Sinusoidal Endothelial Cells (HHSEC, Caltag SC-5000), on Rat Primary Kidney Glomerular Endothelial cells (Cellbiologics, RN-6014G) and on Bovine Brain Microvascular Endothelial Cells (BBMEC, Caltag SC-B100).
# In a first phase, these isolated, purified and cryopreserved cells are thawed and multiplied according to the supplier's recommendations in T75 or T175 flasks pre-coated with 2 μg of fibronectin/[…] (CORNING) for HRGEC, HCMEC, HHSEC and BBMEC, or 2 μg poly-L-lysin/cm^2 (Caltag SC-0403) for HRPTEpiC and HA, or 15 mL/flask 175 cm^2 gelatin-based solution (Cellbiologics) in the presence of endothelial cell supplemented growth medium ECM (P60104, INNOPROT, Caltag, SC-1001) for HRGEC, HCMEC, HHSEC, RPKGEC or BBMEC, or astrocyte cell supplemented growth medium AM (Caltag SC-1801) for HA or epithelial cell supplemented growth medium EpiCM (P60106, INNOPROT) for HRPTEpiC, at 37° C. under 5% CO2 and saturated humidity until their confluency. They are then harvested by trypsinization according to the method described by the supplier for exactly 5 minutes and then reseeded in new flasks a maximum of three times.
# To carry out the oxygen and glucose deprivation test followed by their replenishment, the cells will be seeded in 96-well black plates with transparent flat bottom (GREINER). Once a sufficient number of cells has been obtained to allow seeding of 2000 to 15000 cells per well of 96-well plates depending on the cell type, the cells are seeded in these 96-well plates previously coated with an extracellular matrix as listed above for the flasks. The cells are cultured for 5 to 8 days according to the cell type, in the presence of the same growth medium as in the flask as described above except for HRGEC and HRPTEpiC for which DMEM (DUTSCHER) with 1 g/L of supplemented glucose is used, at 37° C. under 5% CO2 and saturated humidity to obtain confluency.
# On the first day of oxygen and glucose deprivation, (5th, 6th, 7th or 8th day of culture), the culture conditions are drastically changed. The medium of all plates is removed and replaced by DMEM (DUTSCHER) medium without glucose and supplemented only with 1% penicillin-streptomycin (DUTSCHER). Anidulafungin or micafungin dissolved in dimethyl sulfoxide (DMSO) is then added to each well at the desired concentration, resulting in a maximum of 1% DMSO, and the plates are placed under hypoxia at <1% 02 and 5% CO2 at 37° C. for 24 hours of culture. Each compound was tested in a concentration range.
# After 24 hours, the growth medium is changed and replaced by a richer medium, DMEM (DUTSCHER) at 1 g/L glucose and 2% FBS (INNOPROT) and 1% penicillin-streptomycin (DUTSCHER). These media will have been pre-equilibrated at 37° C. in advance. The cells are then returned to culture at 37° C. under 20% 02 and 5% CO2 for 22h.
# After 22 hours of reoxygenation, the potential protective effect of anidulafungin or micafungin is measured by a cell viability test using calcein AM (CORNING), which is a dye substrate. The calcein AM can easily cross the cell membrane of the viable cells. The AM ester groups mask the part of the molecule that chelates calcium. Once inside the cells, the (non-fluorescent) calcein AM is hydrolyzed to (fluorescent) calcein by endogenous esterases. The resulting calcein molecule binds to calcium inside the cell and remains trapped inside the cell. These molecules emit strong green fluorescence when subjected to […] of a particular wavelength (495 nm). Since dead cells lack esterase activity, only living cells are labelled.
# This cell viability test is performed in two steps. […]
smiles,measurement,setting,value
"CCCCCOc1ccc(-c2cc(-c3ccc(C(=O)N[C@H]4C[C@@H](O)[C@@H](O)NC(=O)[C@@H]5[C@@H](O)[C@@H](C)CN5C(=O)[C@H]([C@H](O)CC(N)=O)NC(=O)[C@H]([C@H](O)[C@@H](O)c5ccc(O)c(OS(=O)(=O)O)c5)NC(=O)[C@@H]5C[C@@H](O)CN5C(=O)[C@H]([C@@H](C)O)NC4=O)cc3)no2)cc1 [Micafungin, {5-[(1S,2S)-2-[(3S,6S,9S,11R,15S,18S,20R,21R,24S,25S,26S)-3-[(1R)-2-carbamoyl-1-hydroxyethyl]-11,20,21,25-tetrahydroxy-15-[(1R)-1-hydroxyethyl]-26-methyl-2,5,8,14,17,23-hexaoxo-18-[(4-{5-[4-(pentyloxy)phenyl]-1,2-oxazol-3-yl}benzene)amido]-1,4,7,13,16,22-hexaazatricyclo[22.3.0.0]heptacosan-6-yl]-1,2-dihydroxyethyl]-2-hydroxyphenyl}oxidanesulfonic acid] (X1-[Orn(4R-OH,5R-OH)]T[Hyp][hTyr(3S-OH,4S-OH,3'-OSO3H)][Gln(3R-OH)][Pro(3S-OH,4S-Me)]; lactam 1-C)",Globalfluo assay 1,[Micafungin] log μM −4.39794,17038910 arbitrary units
same,Globalfluo assay 2,[Micafungin] log μM −4.39794,16914110 arbitrary units
same,Globalfluo assay 3,[Micafungin] log μM −4.39794,17516930 arbitrary units
same,Mean globalfluo,[Micafungin] log μM −4.39794,17156650 arbitrary units
same,Survival rate (%),[Micafungin] log μM −4.39794,58%
same,Globalfluo assay 1,[Micafungin] log μM −4.69897,18487560 arbitrary units
same,Globalfluo assay 2,[Micafungin] log μM −4.69897,18879740 arbitrary units
same,Globalfluo assay 3,[Micafungin] log μM −4.69897,18282240 arbitrary units
same,Mean globalfluo,[Micafungin] log μM −4.69897,18549847 arbitrary units
same,Survival rate (%),[Micafungin] log μM −4.69897,63%
same,Globalfluo assay 1,[Micafungin] log μM −4.79588,17777390 arbitrary units
same,Globalfluo assay 2,[Micafungin] log μM −4.79588,17681470 arbitrary units
same,Globalfluo assay 3,[Micafungin] log μM −4.79588,18724080 arbitrary units
same,Mean globalfluo,[Micafungin] log μM −4.79588,18060980 arbitrary units
same,Survival rate (%),[Micafungin] log μM −4.79588,61%
same,Globalfluo assay 1,[Micafungin] log μM −4.853872,17634840 arbitrary units
same,Globalfluo assay 2,[Micafungin] log μM −4.853872,17920170 arbitrary units
same,Globalfluo assay 3,[Micafungin] log μM −4.853872,19831830 arbitrary units
same,Mean globalfluo,[Micafungin] log μM −4.853872,18462280 arbitrary units
same,Survival rate (%),[Micafungin] log μM −4.853872,63%
same,Globalfluo assay 1,[Micafungin] log μM −4.920819,18495680 arbitrary units
same,Globalfluo assay 2,[Micafungin] log μM −4.920819,17954570 arbitrary units
same,Globalfluo assay 3,[Micafungin] log μM −4.920819,19304800 arbitrary units
same,Mean globalfluo,[Micafungin] log μM −4.920819,18585017 arbitrary units
same,Survival rate (%),[Micafungin] log μM −4.920819,64%
same,Globalfluo assay 1,[Micafungin] log μM −5,19091330 arbitrary units
same,Globalfluo assay 2,[Micafungin] log μM −5,21245570 arbitrary units
same,Globalfluo assay 3,[Micafungin] log μM −5,20574080 arbitrary units
same,Mean globalfluo,[Micafungin] log μM −5,20303660 arbitrary units
same,Survival rate (%),[Micafungin] log μM −5,71%
same,Globalfluo assay 1,[Micafungin] log μM −5.30103,17265090 arbitrary units
same,Globalfluo assay 2,[Micafungin] log μM −5.30103,20693980 arbitrary units
same,Globalfluo assay 3,[Micafungin] log μM −5.30103,20348120 arbitrary units
same,Mean globalfluo,[Micafungin] log μM −5.30103,19435730 arbitrary units
same,Survival rate (%),[Micafungin] log μM −5.30103,67%
same,Globalfluo assay 1,[Micafungin] log μM −5.69897,5296218 arbitrary units
same,Globalfluo assay 2,[Micafungin] log μM −5.69897,13559640 arbitrary units
same,Globalfluo assay 3,[Micafungin] log μM −5.69897,14370600 arbitrary units
same,Mean globalfluo,[Micafungin] log μM −5.69897,11075486 arbitrary units
same,Survival rate (%),[Micafungin] log μM −5.69897,32%
same,Globalfluo assay 1,[Micafungin] log μM −5.823909,4696579 arbitrary units
same,Globalfluo assay 2,[Micafungin] log μM −5.823909,8382404 arbitrary units
same,Globalfluo assay 3,[Micafungin] log μM −5.823909,9632039 arbitrary units
same,Mean globalfluo,[Micafungin] log μM −5.823909,7570341 arbitrary units
same,Survival rate (%),[Micafungin] log μM −5.823909,18%
same,Globalfluo assay 1,[Micafungin] log μM −6,5307945 arbitrary units
same,Globalfluo assay 2,[Micafungin] log μM −6,5614600 arbitrary units
same,Globalfluo assay 3,[Micafungin] log μM −6,8026091 arbitrary units
same,Mean globalfluo,[Micafungin] log μM −6,6316212 arbitrary units
same,Survival rate (%),[Micafungin] log μM −6,13%
same,Globalfluo assay 1,[Micafungin] log μM −6.09691,6028392 arbitrary units
same,Globalfluo assay 2,[Micafungin] log μM −6.09691,5998920 arbitrary units
same,Globalfluo assay 3,[Micafungin] log μM −6.09691,5793032 arbitrary units
same,Mean globalfluo,[Micafungin] log μM −6.09691,5940115 arbitrary units
same,Survival rate (%),[Micafungin] log μM −6.09691,11%
same,Globalfluo assay 1,[Micafungin] log μM −6.221849,4745212 arbitrary units
same,Globalfluo assay 2,[Micafungin] log μM −6.221849,4694631 arbitrary units
same,Globalfluo assay 3,[Micafungin] log μM −6.221849,5790310 arbitrary units
same,Mean globalfluo,[Micafungin] log μM −6.221849,5076718 arbitrary units
same,Survival rate (%),[Micafungin] log μM −6.221849,8%
same,Globalfluo assay 1,[Micafungin] log μM −6.39794,4361975 arbitrary units
same,Globalfluo assay 2,[Micafungin] log μM −6.39794,4442347 arbitrary units
same,Globalfluo assay 3,[Micafungin] log μM −6.39794,5176795 arbitrary units
same,Mean globalfluo,[Micafungin] log μM −6.39794,4660372 arbitrary units
same,Survival rate (%),[Micafungin] log μM −6.39794,6%
same,Globalfluo assay 1,[Micafungin] log μM −6.69897,4839699 arbitrary units
same,Globalfluo assay 2,[Micafungin] log μM −6.69897,4005588 arbitrary units
same,Globalfluo assay 3,[Micafungin] log μM −6.69897,4289833 arbitrary units
same,Mean globalfluo,[Micafungin] log μM −6.69897,4378373 arbitrary units
same,Survival rate (%),[Micafungin] log μM −6.69897,5%
same,Globalfluo assay 1,[Micafungin] log μM −7,3602590 arbitrary units
same,Globalfluo assay 2,[Micafungin] log μM −7,3530551 arbitrary units
same,Globalfluo assay 3,[Micafungin] log μM −7,3665638 arbitrary units
same,Mean globalfluo,[Micafungin] log μM −7,3599593 arbitrary units
same,Survival rate (%),[Micafungin] log μM −7,2%
same,Globalfluo assay 1,[Micafungin] log μM −8,3781795 arbitrary units
same,Globalfluo assay 2,[Micafungin] log μM −8,3409519 arbitrary units
same,Globalfluo assay 3,[Micafungin] log μM −8,3718559 arbitrary units
same,Mean globalfluo,[Micafungin] log μM −8,3636624 arbitrary units
same,Survival rate (%),[Micafungin] log μM −8,2%
